Reference: US8785491B2, “Pharmaceutical compositions and methods for treating age-related macular degeneration with melatonin analogues” (Takeda Pharmaceuticals U.S.A., Inc., priority 2008, dated 2014)
Read-outs that look alike come from different tables or passages of the source.

What was measured:
N18-RE-105 hybrid cells = assay: Effect against glutamate-induced cytotoxicity (LDH release)
Description: We used ramelteon and metabolite 1 (as synthesized in Example 1) in this study. Idebenone and vitamine E (α-tocopherol) were purchased from Wako Pure Chemical Industries (Osaka, Japan) and used as positive control. All other chemicals were purchased from standard sources.
For cytotoxicity studies, cells were plated in 96-well plates at a density of 5,000 cells per well in 0.1 ml of the above medium. After culturing for 24 hr, the medium was removed and replaced with medium containing 10 mM glutamate with or without various concentrations of compounds. After 24 hours of incubation, cytotoxicity was quantitated by the release of the cytosolic enzyme lactate dehydrogenase (LDH) into the culture medium. The percentage of cell viability in the presence of each of the test compounds was calculated from the following formula: % cell viability in the presence of compound={LDH activity (absorbance at 550 nm) in the culture medium with compound plus 10 mM glutamate−LDH activity in the control culture medium/LDH activity in the culture medium with 10 mM glutamate−LDH activity in the control culture medium}×100.

[1] = system: human retinal pigment epithelial (RPE) cells; conditions: added diurnally to RPE cell cultures for three consecutive days; cited from earlier work
[2] = system: age-related macular degeneration; conditions: 3 mg daily at bedtime for at least three months; cited from earlier work
[3] = system: melatonin MT1/MT2 receptors; conditions: cited from earlier work

COC1=C(OC)C(=O)C(CCCCCCCCCCO)=C(C)C1=O [Idebenone]
effect on cytotoxicity induced by 10 mM glutamate / cell viability (N18-RE-105 hybrid cells): cell viability was increased

COc1ccc2[nH]cc(CCNC(C)=O)c2c1 [melatonin]
effect on cytotoxicity induced by 10 mM glutamate / cell viability (N18-RE-105 hybrid cells): did not affect cell viability | H2O2-induced cell death and mitochondrial DNA damage [1]: markedly reduced | visual acuity [2]: remained stable

CCC(=O)NCC[C@@H]1CCc2cc(O)c3c(c21)CCO3 [metabolite 1, (S)—N-(2-[4-hydroxy-1,6,7,8-tetrahydro-2H-indeno[5,4-b]furan-8-yl]ethyl)propionamide]
effect on cytotoxicity induced by 10 mM glutamate / cell viability (N18-RE-105 hybrid cells): inhibited | cell death (absorbance, LDH) with varying amounts of compound (N18-RE-105 hybrid cells; 10 mM glutamate treated cell culture, increasing amount, FIG. 2): cell death is reduced | toxicity of glutamate over the basal viability (N18-RE-105 hybrid cells; highest concentration, 10 mM glutamate, FIGS. 1 and 2): completely prevented

CCC(=O)NCC[C@@H]1CCc2ccc3c(c21)CCO3 [ramelteon, (S)—N-[2-(1,6,7,8-tetrahydro-2H-indeno[5,4-b]furan-8-yl)ethyl]propionamide]
effect on cytotoxicity induced by 10 mM glutamate / cell viability (N18-RE-105 hybrid cells): did not affect cell viability | affinity for melatonin MT1/MT2 receptors [3]: high affinity

Cc1c(C)c2c(c(C)c1O)CC[C@@](C)(CCC[C@H](C)CCC[C@H](C)CCCC(C)C)O2 [tocopherol, α-tocopherol]
effect on cytotoxicity induced by 10 mM glutamate / cell viability (N18-RE-105 hybrid cells; 10 mM glutamate, 24 hours incubation, LDH release, FIG. 1): cell viability was increased
